Assay results from publication PMC11257039, “VCP activator reverses nuclear proteostasis defects and enhances TDP-43 aggregate clearance in multisystem proteinopathy models” (The Journal of Clinical Investigation, 2024).
“And” between values parts separate entries of the source, which are not always exact repeats. Equal entries are not always repeated. “Also recorded” adds a separate entry of the source.

Legend:
[1] = molecular target: T1, recombinant WT VCP (Mus musculus, UniProt Q01853); test: Kinase-Glo ATPase assay, recombinant WT VCP; format: biochemical; settings: for ATP consumed: WT VCP no UN
T1 construct: in the full-length recombinant VCP; His (N); made in house; host or cells: Escherichia coli BL21-CodonPlus (DE3)-RIL
Experimental: (§1) Experiments with varied activator concentration and screening were measured using the Kinase-Glo Luminescent Kinase Assay (Promega). Reactions were incubated at 25°C for 1 hour then reduced to 4°C in a thermocycler consisting of 50 nM of recombinant VCP with or without 50 nM UFD1/NPLOC4 in 50 uL ATPase buffer (25 mM HEPES, pH 7.5, 100 mM NaCl, 10 mM MgCl2) at 2% DMSO with 62.5 μM ATP and a range of activator concentrations (Gibco, Sigma-Aldrich). Equal volumes of reaction and Kinase-Glo reagent were incubated for 20 minutes at room temperature in a 96 well white flat bottom plate (Corning). Luminescence was measured in a microplate reader (Spark 20M, Tecan).
(§2) Experiments with varied compound concentration were fit to a 3-parameter dose curve with asymmetric profile likelihood 95% confidence intervals in GraphPad Prism 9 (GraphPad). Experiments with varied ATP concentration were fit to a Michaelis-Menten model with asymmetric profile likelihood 95% confidence intervals. Significance was determined for experiments with fixed compound or fixed ATP concentration using a linear mixed-effects model.

[2] = molecular target: T2, R159H VCP (Mus musculus, UniProt Q01853, R159H); test: MESG-PNP ATPase assay, recombinant R159H VCP; format: biochemical; settings: VCP Mutation R159H; replicate values
T2 construct: in the full-length recombinant VCP; His (N); made in house; host or cells: Escherichia coli BL21-CodonPlus (DE3)-RIL
Experimental: (§3) All other experiments were performed using the EnzCheck phosphatase assay kit (Molecular Probes). ATPase activity was measured in a 96-well flat bottom plate (Thermo Fisher Scientific). 50 nM VCP was incubated in 100 μL ATPase buffer with 2% DMSO with 25 μM compound and various ATP concentrations. The absorbance at 360 ± 5 nm was measured for more than 15 minutes at 25°C. Phosphate release was quantified based on a phosphate standard curve performed on the same plate. Initial enzyme velocity was determined by fitting the linear portion of the data to a linear regression model.
(§4) Figure S8. VCP activators variable effect on ATPase activity of MSP associated mutations in recombinant VCP. ATPase activity of 50 nM recombinant VCP protein was measured using an MESG-PNP assay upon treatment with 25 μM compound versus 2% DMSO control at 1mM ATP for WT (also shown in Fig. 5c), A232E, R155H, and R159H (n=3 with 3 technical replicated per experiment; points are expressed as beta ± SE, linear effects model: *P<0.05,**P<0.01; ***P<0.001; ****P<0.0001).

[3] = molecular target: T1, recombinant WT VCP; test: MESG-PNP (EnzCheck) phosphate release ATPase assay, WT VCP; format: biochemical; settings: for ATPase activity v0/ET: 25 μM compound, replicate experiments
Experimental: as §3, §2

[4] = system: WT HeLa cells expressing GFP-TDP-4FL; test: Flow cytometry of GFP-TDP-4FL integrated fluorescence, WT HeLa; format: cell-based; settings: for Integrated Fluorescence WT (Normalized to CHX): replicate values
Experimental: Drug treatments were performed on neurons 7 days after lentiviral transduction and 14 days after neuronal induction. HeLa cells were collected using trypsin and pelleted at 1000g for 3 minutes. Cell pellets were resuspended in colorless DMEM (Invitrogen) supplemented with 2% FBS and filtered through a BD tube with cell strainer (BD Biosciences) for flow cytometry analysis on LSR II (BD Biosciences). Data analysis was performed on FlowJo v10 software. Integrated fluorescence intensity was determined by multiplying percent positive GFP and GFP median fluorescence values.

[5] = system: 26S proteasome; test: 26S proteasome activity, Suc-LLVY-AMC fluorescence; format: biochemical, human; settings: 25 μM compound, versus 1% DMSO
Experimental: 26S proteasome and substrate suc-LLVY-AMC were purchased (LifeSensors, Inc.). Fluorescence was measured in a microplate reader using a 96-well optical bottom black plate (Thermo Fisher Scientific). […] 26S proteasome was incubated in 100 μL proteasome buffer (20 mM HEPES, pH 7.5, 0.5 mM EDTA, 0.05% Triton-X) with 100 μM suc-LLVY-AMC, 1 mM ATP, and 25 μM compound or 1% DMSO. Fluorescence was measured at excitation 380 ± 10nm and emission 460 ± 10nm for more than 15 minutes at 37°C. Initial velocity was determined by fitting the linear portion of the data to a linear regression model. Significance was determined for using a linear mixed-effects model.

[6] = molecular target: T3, WT VCP + Ufd1/Nploc4 (Mus musculus, UniProt Q01853); test: Kinase-Glo ATPase assay, WT VCP with UFD1/NPLOC4 (UN); format: biochemical; settings: for ATP consumed: WT VCP with UN
T3 construct: in the full-length recombinant VCP; His (N); made in house; host or cells: E. coli (VCP: BL21-CodonPlus (DE3)-RIL; UFD1 and NPLOC4: E. coli (DE3), purified by the MD Anderson core)
Experimental: as §1, §2

[7] = molecular target: T4, R155H VCP (Mus musculus, UniProt Q01853, R155H); test: MESG-PNP ATPase assay, recombinant R155H VCP; format: biochemical; settings: VCP Mutation R155H; replicate values
T4 construct: in the full-length recombinant VCP; His (N); made in house; host or cells: Escherichia coli BL21-CodonPlus (DE3)-RIL
Experimental: as §3, §4

[8] = molecular target: T5, A232E VCP (Mus musculus, UniProt Q01853, A232E); test: MESG-PNP ATPase assay, recombinant A232E VCP; format: biochemical; settings: VCP Mutation A232E; replicate values
T5 construct: in the full-length recombinant VCP; His (N); made in house; host or cells: Escherichia coli BL21-CodonPlus (DE3)-RIL
Experimental: as §3, §4

[9] = system: luciferase; test: Luciferase counter assay: Kinase-Glo with 62.5 μM ATP without recombinant VCP; format: biochemical; settings: for measured ATP consumed (nmol) without VCP: replicate values
Experimental: as §1
(A-D) Measured ATP as determined by a Kinase-Glo assay of 62.5μM ATP in the presence of increasing concentrations of compound without recombinant VCP present. (for all panels: n=3 with 4 technical replicates per experiment, points are expressed as beta ± SE, linear mixed effects model, P>0.05 for each […]
(1 picture or pasted object on this page, not shown here)

T4 sequence (Q01853 whole entry R155H): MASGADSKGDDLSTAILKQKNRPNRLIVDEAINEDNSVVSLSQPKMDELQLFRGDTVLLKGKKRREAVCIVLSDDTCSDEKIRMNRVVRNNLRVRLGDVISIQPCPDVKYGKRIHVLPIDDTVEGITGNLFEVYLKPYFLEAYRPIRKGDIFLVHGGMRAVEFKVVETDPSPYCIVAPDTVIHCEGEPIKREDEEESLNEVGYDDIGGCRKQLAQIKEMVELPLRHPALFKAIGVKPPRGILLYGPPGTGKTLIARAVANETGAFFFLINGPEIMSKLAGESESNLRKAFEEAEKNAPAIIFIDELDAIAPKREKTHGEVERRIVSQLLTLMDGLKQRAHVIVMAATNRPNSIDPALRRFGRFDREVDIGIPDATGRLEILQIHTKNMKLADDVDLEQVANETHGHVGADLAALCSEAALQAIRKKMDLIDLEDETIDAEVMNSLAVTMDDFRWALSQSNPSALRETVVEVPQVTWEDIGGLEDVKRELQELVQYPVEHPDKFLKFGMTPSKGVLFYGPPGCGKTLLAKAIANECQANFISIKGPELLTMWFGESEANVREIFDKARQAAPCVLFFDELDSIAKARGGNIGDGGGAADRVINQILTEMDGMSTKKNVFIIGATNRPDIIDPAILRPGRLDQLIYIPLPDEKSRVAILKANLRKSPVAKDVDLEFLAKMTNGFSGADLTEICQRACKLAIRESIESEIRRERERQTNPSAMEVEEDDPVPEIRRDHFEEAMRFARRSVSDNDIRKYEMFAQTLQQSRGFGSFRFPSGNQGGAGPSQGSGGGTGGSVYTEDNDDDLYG
T2 sequence (Q01853 whole entry R159H): as the sequence (Q01853 whole entry R155H) above, with H155R, R159H counted along it
T3 sequence (Q01853 whole entry): as the sequence (Q01853 whole entry R155H) above, with H155R counted along it
T3 sequence (Q92890 whole entry partner): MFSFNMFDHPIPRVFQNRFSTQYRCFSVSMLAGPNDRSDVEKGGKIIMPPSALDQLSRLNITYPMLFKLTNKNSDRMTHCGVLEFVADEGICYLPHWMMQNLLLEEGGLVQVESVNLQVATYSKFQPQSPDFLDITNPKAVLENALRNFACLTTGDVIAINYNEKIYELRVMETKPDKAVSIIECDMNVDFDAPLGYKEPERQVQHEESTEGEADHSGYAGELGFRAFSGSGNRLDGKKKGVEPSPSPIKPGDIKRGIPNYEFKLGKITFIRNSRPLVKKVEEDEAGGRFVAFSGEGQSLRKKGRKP
T3 sequence (Q8TAT6 whole entry partner): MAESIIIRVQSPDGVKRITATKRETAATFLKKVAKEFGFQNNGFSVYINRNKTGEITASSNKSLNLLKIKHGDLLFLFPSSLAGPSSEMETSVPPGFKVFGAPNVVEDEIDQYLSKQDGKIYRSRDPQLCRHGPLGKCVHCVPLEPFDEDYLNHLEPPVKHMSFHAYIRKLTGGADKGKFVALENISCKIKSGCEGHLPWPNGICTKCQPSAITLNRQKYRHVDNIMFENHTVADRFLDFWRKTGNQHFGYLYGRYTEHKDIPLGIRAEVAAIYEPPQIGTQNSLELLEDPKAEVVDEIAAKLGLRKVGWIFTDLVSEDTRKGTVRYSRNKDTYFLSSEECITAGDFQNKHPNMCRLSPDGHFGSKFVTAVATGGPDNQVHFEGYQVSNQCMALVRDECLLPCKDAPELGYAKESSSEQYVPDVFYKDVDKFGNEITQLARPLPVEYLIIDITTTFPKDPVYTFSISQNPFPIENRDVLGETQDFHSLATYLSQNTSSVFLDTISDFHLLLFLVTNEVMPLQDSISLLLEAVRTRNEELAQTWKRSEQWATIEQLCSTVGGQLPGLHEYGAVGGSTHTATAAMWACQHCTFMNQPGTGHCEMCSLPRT
T1 sequence (Q01853 whole entry): as the sequence (Q01853 whole entry R155H) above, with H155R counted along it
T5 sequence (Q01853 whole entry A232E): as the sequence (Q01853 whole entry R155H) above, with H155R, A232E counted along it

## O=C(OCCN(C1=NS(=O)(=O)c2ccccc21)c1ccc(Cl)cc1)c1ccco1 [UP163]
[1]; EC50 (μM) (95% CI), WT VCP without UN, 50 nM VCP, 62.5 μM ATP, 2% DMSO
  EC50: 9 µM
[1]; 1.56 μM compound
  ATP consumed: 0.996 nmol and 1.192 nmol and 1.605 nmol
[1]; 3.13 μM compound
  ATP consumed: 0.935 nmol and 1.312 nmol and 1.332 nmol
[1]; 6.25 μM compound
  ATP consumed: 1.040 nmol and 1.494 nmol and 1.616 nmol
[1]; 12.5 μM compound
  ATP consumed: 1.105 nmol and 1.570 nmol and 1.588 nmol
[1]; 25 μM compound
  ATP consumed: 1.206 nmol and 1.717 nmol and 1.792 nmol
[1]; 50 μM compound
  ATP consumed: 1.416 nmol and 2.232 nmol and 2.160 nmol
[1]; 100 μM compound
  ATP consumed: 1.546 nmol and 2.072 nmol and 2.521 nmol
[1]; 200 μM compound
  ATP consumed: 1.557 nmol and 2.138 nmol and 2.227 nmol
[1]; in vitro validation of 106 screen hits
  recombinant WT VCP ATPase activity: significantly increased
[1]; maximum, WT VCP without UN
  increase of VCP activity: 104%
[2]
  ATPase activity, nmol Pi / nmol VCP / s: 0.812 nmol Pi / nmol VCP / s and 0.873 nmol Pi / nmol VCP / s and 0.726 nmol Pi / nmol VCP / s
[3]; 25 μM activator
  kcat (nmol Pi / nmol VCP / s) (95% CI): 0.366 (0.335, 0.401) nmol Pi / nmol VCP / s
[3]; 25 μM activator, versus DMSO
  increase in kcat: more than 50%
[3]; [ATP] 62.5 μM
  ATPase activity v0/ET: 0.201 nmol Pi / nmol VCP / s and 0.212 nmol Pi / nmol VCP / s and 0.198 nmol Pi / nmol VCP / s
[3]; [ATP] 125 μM
  ATPase activity v0/ET: 0.260 nmol Pi / nmol VCP / s and 0.250 nmol Pi / nmol VCP / s and 0.255 nmol Pi / nmol VCP / s
[3]; [ATP] 250 μM
  ATPase activity v0/ET: 0.300 nmol Pi / nmol VCP / s and 0.288 nmol Pi / nmol VCP / s and 0.278 nmol Pi / nmol VCP / s
[3]; [ATP] 500 μM
  ATPase activity v0/ET: 0.335 nmol Pi / nmol VCP / s and 0.312 nmol Pi / nmol VCP / s and 0.331 nmol Pi / nmol VCP / s
[3]; [ATP] 1000 μM
  ATPase activity v0/ET: 0.366 nmol Pi / nmol VCP / s and 0.351 nmol Pi / nmol VCP / s and 0.360 nmol Pi / nmol VCP / s
[4]; 5μM compound with CHX
  Integrated Fluorescence WT (Normalized to CHX): 1.026 and 0.947 and 1.013 and 0.859 and 0.810
[4]; 20μM compound with CHX
  Integrated Fluorescence WT (Normalized to CHX): 0.921 and 1.001 and 0.939 and 1.006 and 0.777 and 0.710
[4]; MG132, then CHX with 5 or 20 μM activator
  clearance of GFP-TDP-4FL aggregates (integrated fluorescence): enhances clearance of TDP-4FL inclusions; also recorded: slightly enhanced clearance
[5]
  % activity of 26S proteasome: 101.6% and 88.7% and 86.5% and 112.7% and 93.3% and 91.5%
[6]
  change in EC50 with UN compared to without UN: no change in EC50
  change in maximum percent activity with UN compared to without UN: significantly decreased
[6]; WT VCP + Ufd1/Nploc4, 1:1 molar ratio
  EC50: 8.9 µM
[6]; 1.56 μM compound
  ATP consumed: 1.198 nmol and 1.183 nmol and 1.402 nmol
[6]; 3.13 μM compound
  ATP consumed: 1.366 nmol and 1.295 nmol and 1.519 nmol
[6]; 6.25 μM compound
  ATP consumed: 1.504 nmol and 1.416 nmol and 1.656 nmol
[6]; 12.5 μM compound
  ATP consumed: 1.666 nmol and 1.564 nmol and 1.799 nmol
[6]; 25 μM compound
  ATP consumed: 1.783 nmol and 1.641 nmol and 1.890 nmol
[6]; 50 μM compound
  ATP consumed: 1.844 nmol and 1.710 nmol and 1.941 nmol
[6]; 100 μM compound
  ATP consumed: 1.839 nmol and 1.775 nmol and 1.995 nmol
[6]; 200 μM compound
  ATP consumed: 1.798 nmol and 1.691 nmol and 2.001 nmol
[7]
  ATPase activity, nmol Pi / nmol VCP / s: 0.759 nmol Pi / nmol VCP / s and 0.647 nmol Pi / nmol VCP / s and 0.706 nmol Pi / nmol VCP / s
[8]
  ATPase activity, nmol Pi / nmol VCP / s: 0.830 nmol Pi / nmol VCP / s and 0.637 nmol Pi / nmol VCP / s and 0.764 nmol Pi / nmol VCP / s
[9]; 62.5 μM ATP, increasing concentrations of compound
  luciferase activity (measured ATP without VCP): did not inhibit luciferase activity
[9]; compound 6.25 μM
  measured ATP consumed (nmol) without VCP: 3.139 nmol and 3.185 nmol and 3.132 nmol and 3.341 nmol and 3.220 nmol and 3.273 nmol and 3.147 nmol and 3.064 nmol and 3.275 nmol and 3.208 nmol and 3.040 nmol and 3.045 nmol
[9]; compound 12.5 μM
  measured ATP consumed (nmol) without VCP: 3.118 nmol and 3.105 nmol and 3.142 nmol and 3.139 nmol and 3.279 nmol and 3.429 nmol and 3.221 nmol and 3.237 nmol and 3.278 nmol and 3.379 nmol and 3.331 nmol and 3.029 nmol
[9]; compound 25 μM
  measured ATP consumed (nmol) without VCP: 3.141 nmol and 3.208 nmol and 3.280 nmol and 3.310 nmol and 3.135 nmol and 3.015 nmol and 3.257 nmol and 3.266 nmol and 3.329 nmol and 3.083 nmol and 3.153 nmol
[9]; compound 50 μM
  measured ATP consumed (nmol) without VCP: 3.191 nmol and 3.073 nmol and 3.250 nmol and 3.386 nmol and 3.272 nmol and 3.113 nmol and 3.202 nmol and 3.171 nmol and 3.209 nmol and 3.373 nmol and 3.530 nmol and 3.028 nmol
[9]; compound 100 μM
  measured ATP consumed (nmol) without VCP: 3.232 nmol and 3.235 nmol and 3.017 nmol and 3.209 nmol and 3.245 nmol and 3.024 nmol and 3.264 nmol and 3.329 nmol and 3.427 nmol and 3.000 nmol and 3.076 nmol
[9]; compound 200 μM
  measured ATP consumed (nmol) without VCP: 3.190 nmol (2×) and 3.291 nmol and 3.314 nmol and 3.330 nmol and 3.165 nmol and 3.125 nmol and 3.456 nmol and 3.010 nmol and 3.038 nmol and 3.261 nmol and 3.272 nmol
